Laboratory results: patent publication US11566003B2, “Isoquinolines as inhibitors of HPK1” (priority 2017, dated 2023)

Columns and labels:
HPK1 [1] = biological target: HPK1 (Homo sapiens (Human), UniProt Q92918); assay: biochemical; type: binding
HPK1 [2] = biological target: HPK1 (Homo sapiens (Human), UniProt Q92918, S171E/T165E); assay: biochemical

## Cc1c(NC(C)C)cncc1-c1cc(N)c2cnc(NC(=O)[C@@H]3C[C@H]3C#N)cc2c1 (racemic) [Compound 186, (±)-trans-N-(8-amino-6-[4-methyl-5-[(propan-2-yl)amino]pyridin-3-yl]isoquinolin-3-yl)-2-cyanocyclopropane-1-carboxamide]
HPK1 [1]
  Ki: 6.96 nM

## Cc1c(N)cncc1-c1cc2cc(NC(=O)[C@@H]3C[C@H]3CC#N)ncc2c(N)c1Cl (racemic) [Compound 209, (±)-trans-N-(8-amino-6-(5-amino-4-methylpyridin-3-yl)-7-chloroisoquinolin-3-yl)-2-(cyanomethyl)cyclopropanecarboxamide]
HPK1 [1]
  Ki: 0.0405 nM

## C[C@H]1Cc2c(cncc2-c2cc(N)c3cnc(NC(=O)C4CC4)cc3c2)N1 [Compound 189, (S)—N-(8-amino-6-(2-methyl-2,3-dihydro-1H-pyrrolo[2,3-c]pyridin-4-yl)isoquinolin-3-yl)cyclopropanecarboxamide]
HPK1 [1]
  Ki: 5.44 nM
